In the supplement of paper PMC7695840:
pIC50: −log10 of the molar value. Where “and” joins values, the source holds several entries; their conditions need not be identical. Equal entries are not always repeated. Structures can show the parent of a compound that is named as a salt.

Legend:
[1] = tested on: Staphylococcus aureus MW2 delta-mecA (mecA-); experiment: IC50 (growth, competition assay); conditions: cefoxitin: subinhibitory
Method in brief: (§1)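 Signals from DsRed (540/590) and GFP (485/520) were scaled on every plate between single-strain control medians, with No Treatment then set to 0.5. The cells were a 1:1 mix of pre-induced fluorescent S. aureus MW2 strains with and without the resistance gene, grown unshaken for 20 h at 37 °C and 90% humidity in LB in 1536-well plates under a subinhibitory drug dose set each day. Each strain's IC50 was defined as the dose halving the No Treatment signal, or the maximal signal.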

[2] = tested on: Staphylococcus aureus MW2 (mecA+); experiment: IC50 (growth, competition assay); conditions: cefoxitin: subinhibitory
Method in brief: as §1

Structure (SMILES)	pIC50 ([1]; fluorescent label: DsRed)	pIC50 ([1]; fluorescent label: GFP)	pIC50 ([2]; fluorescent label: DsRed)	pIC50 ([2]; fluorescent label: GFP)
CCn1cc(C(=O)O)c(=O)c2cnc(N3CCNCC3)nc21 [PIPEDAC]	4.19	4.44	4.42	4.22
CC[C@H]1OC(=O)C[C@@H](O)[C@H](C)[C@@H](O[C@@H]2O[C@H](C)[C@@H](O)[C@H](N(C)C)[C@H]2O)[C@@H](CCN2C[C@H](C)C[C@H](C)C2)C[C@@H](C)C(=O)/C=C/C(C)=C/[C@@H]1CO[C@@H]1O[C@H](C)[C@@H](O)[C@@H](OC)[C@H]1OC [MICOTIL]	4.87	> 5.01	4.73	4.55
C[N+](C)(C)CC(O)CC(=O)[O-] (racemic) [DL-Carnitine hydrochloride]	< 3.82	3.86	< 3.82	< 3.82
CC(C)(C)C#Cc1cc(N(C(=O)[C@H]2CC[C@H](C)CC2)[C@H]2CC[C@H](O)CC2)c(C(=O)O)s1 [VX-222]	4.78	4.76	4.59	4.27
O=C(Nc1ccc([N+](=O)[O-])cc1Cl)c1cc(Cl)ccc1O [Niclosamide]	> 5.01	4.13	3.95	> 5.01
Cc1ccc(S(=O)(=O)C=CC#N)cc1 [Bay 11-7082]	> 5.01	> 5.01	> 5.01	> 5.01
C[C@@H](O)[C@H]1C(=O)N2C(C(=O)OCOC(=O)C(C)(C)C)=C(SC3CN(C4=NCCS4)C3)[C@H](C)[C@H]12 [Tebipenem pivoxil (L-084)]	> 6.30	> 6.30	5.75	5.75
CN1CCN(CCCN2c3ccccc3Sc3ccc(C(F)(F)F)cc32)CC1 [STELAZINE]	4.74	4.80	4.26	4.25
O=C1[C@H](CC[C@H](O)c2ccc(F)cc2)[C@@H](c2ccc(O)cc2)N1c1ccc(F)cc1 [Ezetimibe (Zetia)]	4.60	4.83	4.10	3.97
C#CC[C@H](c1nc2cc(Cl)ccc2c(=O)n1Nc1ccccc1)N(CCCN)C(=O)c1cccc(Cl)c1F [ARQ 621]	4.62	4.95	4.05	3.98
COc1ccc(Cl)cc1NC(=O)Nc1cc(C)nc2ccccc12 [PQ 401]	4.98	4.91	4.62	4.75
CC(C)(C)c1cc(/C=C(\C#N)C(N)=S)cc(C(C)(C)C)c1O [Tyrphostin AG 879 (AG 879)]	> 5.01	> 5.01	> 5.01	4.85
C[C@@H](O[C@H]1OCCN(Cc2n[nH]c(=O)[nH]2)[C@H]1c1ccc(F)cc1)c1cc(C(F)(F)F)cc(C(F)(F)F)c1 [Aprepitant (MK-0869)]	4.72	4.75	4.35	4.27
COC(=O)/C(C)=C\C[C@@]12OC(C)(C)[C@@H]3C[C@@H](C=C4C(=O)c5c(O)c6c(c(CC=C(C)C)c5O[C@]431)O[C@](C)(CCC=C(C)C)C=C6)C2=O [METHYL GAMBOGATE]	4.89	4.64	4.25	4.18
O=S(=O)(c1ccccc1)N(CC(F)(F)F)c1ccc(C(O)(C(F)(F)F)C(F)(F)F)cc1	> 5.01	> 5.01	4.61	4.53
COc1cc(Cc2cnc(N)nc2N)cc(OC)c1OC [Trimethoprim]	> 5.01	> 5.01	4.91 and > 5.01	4.84 and 4.85
COc1cc(Cc2cnc(N)nc2N)cc(OC)c1OC [TRIMPEX]	> 5.01	> 5.01	> 5.01	> 5.01
CCCCCC(=O)Cc1cc(O)cc(O)c1C(=O)Oc1cc(CC(=O)CCCCC)c(C(=O)O)c(OC)c1 [ARTHONIOIC ACID]	4.34	4.30	4.62	4.25
NCCOB(c1ccccc1)c1ccccc1 [AMINOETHOXYDIPHENYLBORANE]	4.95	4.93	4.59	4.60
CCCCCCCCCCCCCCCCOP(=O)([O-])OCC[N+](C)(C)C [Miltefosine (Hexadecylphosphocholine)]	4.44	4.25	< 3.82	< 3.82
COC(=O)c1c(C)c2c(c(C)c1O)OC(=O)c1c(C)c(Cl)c(O)c(Cl)c1O2 [LEOIDIN]	> 5.01	> 5.01	> 5.01	> 5.01
O=C(Nc1ccc(C(=O)O)c(O)c1)c1ccccc1 [THERAPAS]	4.75	4.93	4.53	4.53
[O-][n+]1ccccc1[S-].[O-][n+]1ccccc1[S-].[Zn+2] [Zinc Pyrithione]	> 5.01	> 5.01	> 5.01	> 5.01
COc1cc(-c2ccc(/N=N/c3ccc4c(S(=O)(=O)O)cc(S(=O)(=O)O)c(N)c4c3O)c(OC)c2)ccc1/N=N/c1ccc2c(S(=O)(=O)O)cc(S(=O)(=O)O)c(N)c2c1O [CHICAGO SKY BLUE]	> 5.01	> 5.01	4.60	4.78
CC/C(=C(\c1ccccc1)c1ccc(OCCN(C)C)cc1)c1ccccc1 [Tamoxifen]	4.91	> 5.01	4.83	4.83
O=c1[nH]cc(F)c(=O)[nH]1 [Adrucil (Fluorouracil)]	> 6.30	> 6.30	5.76	5.75
C#CCCCCCCCCCCCC(O)CC(O)CO.C=CCCCCCCCCCCCC(O)CC(O)CO (configuration not stated)	> 5.01	> 5.01	4.78	4.58
COc1ccc2c(c[n+](C)c3c4cc5c(cc4ccc23)OCO5)c1OC [Chelerythrine chloride]	4.83	> 5.01	4.44	4.31
